From the NIST ThermoML archive (doi:10.1016/j.tca.2012.03.027)
± gives the expanded uncertainty stated by the source.

Details: Crystal 2; DTA

| SMILES | Triple point temperature [K] |
| --- | --- |
| CC1(C)[C@@H]2CC[C@@]1(C)C(=O)C2 [d-camphor] | 367 ± 3 |
| CC12CCC(CC1=O)C2(C)C (configuration not stated) [1,7,7-trimethylbicyclo[2.2.1]-2-heptanone] | 362 ± 4 |
